Values belong to the compound of their own block, whether it stands above or below them. Calls of active or inactive are those of the source. No cut-off for these calls is given here.
How the values were obtained:
[1] = tested on: Mast/stem cell growth factor receptor Kit (Homo sapiens), P10721 [UNDEFINED MUTATION]; details: GISTT1, 0.1 uM
Description: Inhibition of c-KIT 560 to 578 deletion mutant in human GISTT1 cells assessed as reduction in c-KIT autophosphorylation at Y823 residue at 0.1 uM measured after 2 hrs by Western blot analysis

[2] = tested on: Mast/stem cell growth factor receptor Kit (Homo sapiens), P10721 [UNDEFINED MUTATION]; details: GISTT1, 0.1 uM; remark: listed apart in the source
Description: Inhibition of c-KIT 560 to 578 deletion/T670I mutant in human GISTT1 cells assessed as reduction in c-KIT autophosphorylation at Y719 residue at 0.1 uM measured after 2 hrs by Western blot analysis

[3] = tested on: Mast/stem cell growth factor receptor Kit (Homo sapiens), P10721 [UNDEFINED MUTATION]; details: 0.1 uM
Description: Inhibition of c-KIT 560 to 578 deletion/T670I mutant in human GIST5R cells assessed as reduction in c-KIT autophosphorylation at Y703 residue at 0.1 uM measured after 2 hrs by Western blot analysis

[4] = tested on: Mast/stem cell growth factor receptor Kit (Homo sapiens), P10721 [UNDEFINED MUTATION]; details: GISTT1, 0.1 uM; remark: listed apart in the source
Description: Inhibition of c-KIT 560 to 578 deletion mutant in human GISTT1 cells assessed as reduction in AKT phosphorylation at T308 residue at 0.1 uM measured after 2 hrs by Western blot analysis

[5] = tested on: Mast/stem cell growth factor receptor Kit (Homo sapiens), P10721 [UNDEFINED MUTATION]; details: GISTT1, 0.1 uM; remark: listed apart in the source
Description: Inhibition of c-KIT 560 to 578 deletion/T670I mutant in human GISTT1 cells assessed as reduction in pS6 phosphorylation at S235 residue at 0.1 uM measured after 2 hrs by Western blot analysis

[6] = tested on: Mast/stem cell growth factor receptor Kit (Homo sapiens), P10721 [UNDEFINED MUTATION]; details: 0.1 uM; remark: listed apart in the source
Description: Inhibition of c-KIT 560 to 578 deletion/T670I mutant in human GIST5R assessed as reduction in AKT phosphorylation at T308 residue at 0.1 uM measured after 2 hrs by Western blot analysis

[7] = tested on: Mast/stem cell growth factor receptor Kit (Homo sapiens), P10721 [UNDEFINED MUTATION]; details: 0.1 uM; remark: listed apart in the source
Description: Inhibition of c-KIT 560 to 578 deletion/T670I mutant in human GIST5R assessed as reduction in pS6 phosphorylation at S236 residue at 0.1 uM measured after 2 hrs by Western blot analysis

[8] = tested on: Mast/stem cell growth factor receptor Kit (Homo sapiens), P10721 [UNDEFINED MUTATION]; details: 0.1 uM; remark: listed apart in the source
Description: Inhibition of c-KIT 560 to 578 deletion/T670I mutant in human GIST5R assessed as reduction in ERK phosphorylation at T204 residue at 0.1 uM measured after 2 hrs by Western blot analysis

Mus musculus [9] = assay: Antitumor activity against mouse BAF3(transformed) cells harboring c-KIT D820G mutant implanted in BALB/c nu mouse assessed as tumor growth inhibition administered via oral gavage for 9 days; format: functional
Mus musculus [10] = assay: Antitumor activity against mouse BAF3(transformed) cells harboring c-KIT T670I mutant implanted in BALB/c nu mouse assessed as tumor growth inhibition administered via oral gavage for 11 days; format: functional
[11] = biological target: Vascular endothelial growth factor receptor 3 (Homo sapiens) (UniProt P35916); assay: Binding affinity to wild-type human partial length FLT4 (E821 to E1196 residues) expressed in bacterial expression system assessed as residual binding level at 1 uM by Kinomescan method relative to control
[12] = biological target: T1, Platelet-derived growth factor receptor beta (Homo sapiens, UniProt P09619); assay: Binding affinity to wild-type human partial length PDGFRB (V582 to Y1009 residues) expressed in bacterial expression system assessed as residual binding level at 1 uM by Kinomescan method relative to control
[13] = biological target: T1, Platelet-derived growth factor receptor beta; assay: Inhibition of recombinant human His-tagged PDGFRB cytoplasmic domain (558 to 1106 residues) expressed in baculovirus expression system by Z-lyte assay
[14] = biological target: Proto-oncogene tyrosine-protein kinase receptor Ret (Homo sapiens, UniProt P07949); assay: Inhibition of recombinant human RET cytoplasmic domain (658 to 1114 residues) expressed in baculovirus expression system by Z-lyte assay
[15] = biological target: Vascular endothelial growth factor receptor 3 (Mus musculus) (UniProt P35917); assay: Inhibition of FLT4 in mouse BAF3(transformed) cells assessed as growth inhibition after 72 hrs by CCK8 assay
[16] = biological target: T2, Mast/stem cell growth factor receptor Kit (Homo sapiens, UniProt P10721, 560-578DEL); format: cell-based, GISTT1
[17] = biological target: T2, Mast/stem cell growth factor receptor Kit; format: cell-based, GISTT1; remark: listed apart in the source
[18] = biological target: T2, Mast/stem cell growth factor receptor Kit; format: cell-based, GISTT1; remark: listed apart in the source
[19] = biological target: T2, Mast/stem cell growth factor receptor Kit; format: cell-based, GISTT1; remark: listed apart in the source
[20] = biological target: T3, Mast/stem cell growth factor receptor Kit (Homo sapiens, UniProt P10721, 560-578DEL/T670I)
[21] = biological target: T3, Mast/stem cell growth factor receptor Kit; remark: listed apart in the source
[22] = biological target: T3, Mast/stem cell growth factor receptor Kit; remark: listed apart in the source
[23] = biological target: T3, Mast/stem cell growth factor receptor Kit; remark: listed apart in the source
[24] = biological target: RAC-alpha serine/threonine-protein kinase (Homo sapiens) (UniProt P31749); format: cell-based
GISTT1 [25] = format: functional, cell-based; details: Homo sapiens
GISTT1 [26] = format: functional, cell-based; details: Homo sapiens; remark: listed apart in the source
Homo sapiens [27] = organism: Homo sapiens; format: functional, cell-based
[28] = AUC (0 to t) in Sprague-Dawley rat at 10 mg/kg, po by LC-MS/MS analysis; format: ADME, organism-based; details: in vivo
[29] = Cmax in Sprague-Dawley rat at 10 mg/kg, po by LC-MS/MS analysis; format: ADME, organism-based; parameters: dose 10 mg/kg, route oral; details: in vivo
[30] = Oral bioavailability in Sprague-Dawley rat at 10 mg/kg by LC-MS/MS analysis; format: ADME, organism-based; details: in vivo
[31] = Half life in mouse at 1 mg/kg, iv by LC-MS/MS analysis; format: ADME, organism-based; details: in vivo
[32] = Cmax in mouse at 1 mg/kg, iv by LC-MS/MS analysis; format: ADME, organism-based; parameters: dose 1 mg/kg, route intravenous; details: in vivo
[33] = Tmax in mouse at 10 mg/kg, po by LC-MS/MS analysis; format: ADME, organism-based; details: in vivo
[34] = AUC (0 to t) in Beagle dog at 1 mg/kg, iv by LC-MS/MS analysis; format: ADME, organism-based, Canis lupus familiaris; details: in vivo
[35] = AUC (0 to t) in Beagle dog at 5 mg/kg, po by LC-MS/MS analysis; format: ADME, organism-based, Canis lupus familiaris; details: in vivo
[36] = Cmax in Beagle dog at 5 mg/kg, po by LC-MS/MS analysis; format: ADME, organism-based, Canis lupus familiaris; parameters: dose 5 mg/kg, route oral; details: in vivo
Mus musculus [37] = format: functional, organism-based; details: BALB/c, 80 mg/kg, TDE = time-dependent effect
Mus musculus [38] = format: functional, organism-based; details: BALB/c, 80 mg/kg, TDE = time-dependent effect; remark: listed apart in the source
Mus musculus [39] = format: functional, organism-based; details: BALB/c, 80 mg/kg
Mus musculus [40] = format: functional, organism-based; details: BALB/c, 80 mg/kg; remark: listed apart in the source
[41] = Protein binding in plasma (unknown origin); format: ADME, cell-free; details: read-out: PPB
[42] = Antitumor activity against mouse BAF3(transformed) cells harboring c-KIT Y823D mutant implanted in BALB/c nu mouse assessed as tumor growth inhibition at 80 mg/kg/day, po administered via gavage for 9 days relative to control; format: functional; details: 216 h, read-out: TGI
GISTT1 [43] = format: functional, Homo sapiens; details: Mus musculus, GISTT1, po, 672 h; read-out: TGI
GISTT1 [44] = format: functional, Homo sapiens; details: Mus musculus, GISTT1, po, 672 h; read-out: TGI; remark: listed apart in the source
GISTT1 [45] = format: functional, Homo sapiens
Homo sapiens [46] = format: functional; details: 20 mg/kg
Homo sapiens [47] = format: functional; details: 40 mg/kg
[48] = Toxicity in BALB/c nu mouse implanted with mouse BAF3(transformed) cells harboring c-KIT Y823D mutant assessed as change in body weight at 40 to 80 mg/kg/day, po administered via gavage for 9 days measured daily during compound dosing; format: organism-based; details: in vivo, 216 h
[49] = tested on: Mast/stem cell growth factor receptor Kit (Homo sapiens), P10721 [V559A]; details: Mus musculus
Description: Inhibition of c-KIT V559A mutant in mouse BAF3(transformed) cells assessed as growth inhibition after 72 hrs by CCK8 assay

[50] = tested on: Mast/stem cell growth factor receptor Kit (Homo sapiens), P10721 [V560D]; details: Mus musculus
[51] = tested on: Mast/stem cell growth factor receptor Kit (Homo sapiens), P10721 [V654A]; details: Mus musculus
Description: Inhibition of c-KIT V654A mutant in mouse BAF3(transformed) cells assessed as growth inhibition after 72 hrs by CCK8 assay

[52] = tested on: Mast/stem cell growth factor receptor Kit (Homo sapiens), P10721 [N822K]; details: Mus musculus
Description: Inhibition of c-KIT N822K mutant in mouse BAF3(transformed) cells assessed as growth inhibition after 72 hrs by CCK8 assay

[53] = tested on: Mast/stem cell growth factor receptor Kit (Homo sapiens), P10721 [Y823D]; details: Mus musculus
Mast/stem cell growth factor receptor Kit (Homo sapiens), P10721 [Y823D], sequence (P10721 whole entry Y823D): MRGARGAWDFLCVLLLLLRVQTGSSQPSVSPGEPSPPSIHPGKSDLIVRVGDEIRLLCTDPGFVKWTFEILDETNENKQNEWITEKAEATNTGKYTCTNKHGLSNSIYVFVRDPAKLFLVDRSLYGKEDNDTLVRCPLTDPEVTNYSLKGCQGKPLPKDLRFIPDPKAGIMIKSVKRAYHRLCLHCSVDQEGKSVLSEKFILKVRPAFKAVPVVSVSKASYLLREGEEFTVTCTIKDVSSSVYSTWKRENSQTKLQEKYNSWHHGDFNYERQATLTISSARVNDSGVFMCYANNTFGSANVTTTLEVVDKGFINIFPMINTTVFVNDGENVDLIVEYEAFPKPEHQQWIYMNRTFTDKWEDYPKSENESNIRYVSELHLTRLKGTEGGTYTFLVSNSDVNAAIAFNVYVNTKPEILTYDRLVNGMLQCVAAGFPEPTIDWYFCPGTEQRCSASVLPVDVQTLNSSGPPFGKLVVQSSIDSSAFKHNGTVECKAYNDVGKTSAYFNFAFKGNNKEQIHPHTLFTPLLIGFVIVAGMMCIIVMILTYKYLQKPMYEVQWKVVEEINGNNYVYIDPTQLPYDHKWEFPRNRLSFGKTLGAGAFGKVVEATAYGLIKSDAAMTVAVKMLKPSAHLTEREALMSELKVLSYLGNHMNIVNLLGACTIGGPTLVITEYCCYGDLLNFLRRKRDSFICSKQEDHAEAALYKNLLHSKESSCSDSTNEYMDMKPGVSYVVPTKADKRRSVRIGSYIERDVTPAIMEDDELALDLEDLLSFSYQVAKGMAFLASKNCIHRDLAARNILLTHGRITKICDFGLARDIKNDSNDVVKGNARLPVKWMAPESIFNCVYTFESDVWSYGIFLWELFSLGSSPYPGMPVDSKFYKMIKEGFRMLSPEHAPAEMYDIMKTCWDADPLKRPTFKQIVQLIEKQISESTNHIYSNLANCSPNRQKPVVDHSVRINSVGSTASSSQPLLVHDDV
Description: Inhibition of c-KIT Y823D mutant in mouse BAF3(transformed) cells assessed as growth inhibition after 72 hrs by CCK8 assay

T3 sequence (P10721 whole entry, looked up, stated change not applied): as the sequence (P10721 whole entry Y823D) above, with D823Y counted along it
T2 sequence (P10721 whole entry, looked up, stated change not applied): as the sequence (P10721 whole entry Y823D) above, with D823Y counted along it
Mast/stem cell growth factor receptor Kit (Homo sapiens), P10721 [UNDEFINED MUTATION], sequence (P10721 whole entry, looked up, stated change not applied): as the sequence (P10721 whole entry Y823D) above, with D823Y counted along it
T1 sequence (P09619 whole entry, the tested form may be a part): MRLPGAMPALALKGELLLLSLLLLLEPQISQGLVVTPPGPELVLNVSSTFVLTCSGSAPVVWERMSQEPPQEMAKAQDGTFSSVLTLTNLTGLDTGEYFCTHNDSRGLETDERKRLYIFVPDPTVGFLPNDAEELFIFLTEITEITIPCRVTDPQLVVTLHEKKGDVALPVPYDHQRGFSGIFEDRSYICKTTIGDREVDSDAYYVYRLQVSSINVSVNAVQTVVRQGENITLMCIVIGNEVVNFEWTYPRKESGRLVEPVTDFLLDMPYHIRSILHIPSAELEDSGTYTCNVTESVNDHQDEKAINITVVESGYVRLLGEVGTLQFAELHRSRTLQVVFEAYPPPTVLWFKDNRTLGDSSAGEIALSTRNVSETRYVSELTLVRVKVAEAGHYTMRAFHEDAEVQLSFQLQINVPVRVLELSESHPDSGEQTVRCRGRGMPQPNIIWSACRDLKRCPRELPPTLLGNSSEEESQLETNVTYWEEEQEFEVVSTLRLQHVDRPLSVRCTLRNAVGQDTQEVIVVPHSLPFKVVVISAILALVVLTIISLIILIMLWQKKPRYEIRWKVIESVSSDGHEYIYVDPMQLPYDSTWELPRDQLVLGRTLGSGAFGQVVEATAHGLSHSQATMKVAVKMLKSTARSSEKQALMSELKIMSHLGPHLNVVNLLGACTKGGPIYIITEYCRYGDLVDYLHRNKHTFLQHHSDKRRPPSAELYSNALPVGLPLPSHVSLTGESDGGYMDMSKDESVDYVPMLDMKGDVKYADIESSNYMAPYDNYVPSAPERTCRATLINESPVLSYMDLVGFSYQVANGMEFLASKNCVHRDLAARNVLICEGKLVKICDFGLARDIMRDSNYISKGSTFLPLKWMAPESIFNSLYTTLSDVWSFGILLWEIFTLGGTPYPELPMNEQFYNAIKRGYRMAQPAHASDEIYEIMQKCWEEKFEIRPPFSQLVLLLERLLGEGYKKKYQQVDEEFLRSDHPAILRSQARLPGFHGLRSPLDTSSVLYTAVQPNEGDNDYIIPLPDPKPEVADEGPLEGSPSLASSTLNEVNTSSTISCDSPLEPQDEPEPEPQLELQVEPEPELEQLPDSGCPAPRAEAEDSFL
Mast/stem cell growth factor receptor Kit (Homo sapiens), P10721 [V654A], sequence (P10721 whole entry V654A): as the sequence (P10721 whole entry Y823D) above, with V654A, D823Y counted along it
Mast/stem cell growth factor receptor Kit (Homo sapiens), P10721 [V560D], sequence (P10721 whole entry V560D): as the sequence (P10721 whole entry Y823D) above, with V560D, D823Y counted along it
RAC-alpha serine/threonine-protein kinase (Homo sapiens), sequence (P31749 whole entry): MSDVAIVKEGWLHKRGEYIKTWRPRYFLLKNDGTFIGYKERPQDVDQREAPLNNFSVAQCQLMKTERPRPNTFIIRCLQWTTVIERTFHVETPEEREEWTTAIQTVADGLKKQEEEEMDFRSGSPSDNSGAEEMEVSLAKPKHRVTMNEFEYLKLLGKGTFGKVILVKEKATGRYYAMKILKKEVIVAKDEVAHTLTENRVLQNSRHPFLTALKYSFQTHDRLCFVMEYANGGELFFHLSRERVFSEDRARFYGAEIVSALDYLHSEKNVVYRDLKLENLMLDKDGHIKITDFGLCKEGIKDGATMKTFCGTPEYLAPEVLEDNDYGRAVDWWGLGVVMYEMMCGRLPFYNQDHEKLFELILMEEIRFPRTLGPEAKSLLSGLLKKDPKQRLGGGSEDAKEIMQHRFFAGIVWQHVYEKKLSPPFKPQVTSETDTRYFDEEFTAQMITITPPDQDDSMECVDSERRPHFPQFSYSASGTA
Proto-oncogene tyrosine-protein kinase receptor Ret, sequence (P07949 whole entry, the tested form may be a part): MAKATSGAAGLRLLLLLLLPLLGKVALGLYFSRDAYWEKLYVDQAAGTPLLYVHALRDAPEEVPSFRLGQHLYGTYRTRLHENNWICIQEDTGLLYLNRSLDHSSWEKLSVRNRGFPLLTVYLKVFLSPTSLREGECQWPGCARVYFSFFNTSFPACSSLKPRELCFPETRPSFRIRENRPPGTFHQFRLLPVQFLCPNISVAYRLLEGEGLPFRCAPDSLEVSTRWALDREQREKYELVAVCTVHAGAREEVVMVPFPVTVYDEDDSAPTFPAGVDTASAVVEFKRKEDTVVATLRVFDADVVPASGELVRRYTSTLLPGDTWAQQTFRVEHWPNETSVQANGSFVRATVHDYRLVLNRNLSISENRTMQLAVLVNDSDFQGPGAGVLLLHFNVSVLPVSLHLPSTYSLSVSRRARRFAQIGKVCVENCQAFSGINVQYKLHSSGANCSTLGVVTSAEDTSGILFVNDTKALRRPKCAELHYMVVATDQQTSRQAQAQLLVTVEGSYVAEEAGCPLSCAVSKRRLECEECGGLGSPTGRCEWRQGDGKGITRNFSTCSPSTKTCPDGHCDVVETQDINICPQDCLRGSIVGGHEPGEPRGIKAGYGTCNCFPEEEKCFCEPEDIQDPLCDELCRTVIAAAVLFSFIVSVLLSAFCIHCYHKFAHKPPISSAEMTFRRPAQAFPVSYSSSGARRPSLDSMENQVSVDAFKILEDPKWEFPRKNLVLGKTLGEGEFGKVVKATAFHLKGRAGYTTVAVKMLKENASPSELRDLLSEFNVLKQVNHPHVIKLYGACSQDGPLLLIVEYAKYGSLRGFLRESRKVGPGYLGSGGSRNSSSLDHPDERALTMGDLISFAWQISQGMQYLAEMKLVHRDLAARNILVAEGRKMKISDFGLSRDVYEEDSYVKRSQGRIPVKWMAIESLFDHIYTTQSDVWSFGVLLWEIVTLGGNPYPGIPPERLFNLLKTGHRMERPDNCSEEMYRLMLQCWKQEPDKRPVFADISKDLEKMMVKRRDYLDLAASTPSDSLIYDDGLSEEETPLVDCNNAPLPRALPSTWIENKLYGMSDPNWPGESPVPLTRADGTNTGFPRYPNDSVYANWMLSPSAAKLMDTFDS
Mast/stem cell growth factor receptor Kit (Homo sapiens), P10721 [V559A], sequence (P10721 whole entry V559A): as the sequence (P10721 whole entry Y823D) above, with V559A, D823Y counted along it
Mast/stem cell growth factor receptor Kit (Homo sapiens), P10721 [N822K], sequence (P10721 whole entry N822K): as the sequence (P10721 whole entry Y823D) above, with N822K, D823Y counted along it

inhibition [1]: Active
inhibition [2]: Active
inhibition [3]: Active
inhibition [4]: Active
inhibition [5]: Active
inhibition [6]: Active
inhibition [7]: Active
inhibition [8]: Active
SMILES: CCN(CC)CCNC(=O)c1c(C)[nH]c(/C=C2\C(=O)Nc3ccc(F)cc32)c1C [SUNITINIB]

SMILES: COc1cc2nccc(Oc3ccc(NC(=O)Cc4ccc(Cl)c(C(F)(F)F)c4)cc3)c2cc1OC
TGI (Mus musculus [9]): Dose-dependent effect
TGI (Mus musculus [10]): Dose-dependent effect
Activity [11]: < 1%
Activity [12]: < 1%
IC50 [13]: 97 nM
IC50 [14]: 34 nM
GI50 [15]: 522 nM
EC50 [16]: < 100 nM
EC50 [17]: < 100 nM
EC50 [18]: < 100 nM
EC50 [19]: < 100 nM
EC50 [20]: < 100 nM
EC50 [21]: < 100 nM
EC50 [22]: < 100 nM
EC50 [23]: < 100 nM
inhibition [24]: Active
Activity (GISTT1 [25]): Dose-dependent effect
Activity (GISTT1 [26]): Dose-dependent effect
Activity (Homo sapiens [27]): Dose-dependent effect
AUC(0-t) [28]: 25100 ng·h/mL
Cmax [29]: 1640 ng/mL
bioavailability [30]: 50%
half-life [31]: 5.4 h
Cmax [32]: 520 ng/mL
Tmax [33]: 4 h
AUC(0-t) [34]: 5320 ng·h/mL
AUC(0-t) [35]: 19100 ng·h/mL
Cmax [36]: 1160 ng/mL
inhibition (Mus musculus [37]): Tde
inhibition (Mus musculus [38]): Tde
inhibition (Mus musculus [39]): inactive
inhibition (Mus musculus [40]): inactive
fraction unbound [41]: < 0.1
inhibition in vivo at 80 mg/kg/day [42]: 90.2%
inhibition in vivo at 20 mg/kg/day (GISTT1 [43]): 95.6%
inhibition in vivo at 40 mg/kg/day (GISTT1 [44]): 96.9%
Activity (GISTT1 [45]): 0.27 g
TGI (Homo sapiens [46]): Dose-dependent effect
TGI (Homo sapiens [47]): Dose-dependent effect
Activity [48]: Non-Toxic
GI50 [49]: 21 nM
GI50 [50]: 4 nM
GI50 [51]: 320 nM
GI50 [52]: 26 nM
GI50 [53]: 35 nM

Reference: ChEMBL document CHEMBL4359837, “Discovery of 2-(4-Chloro-3-(trifluoromethyl)phenyl)-N-(4-((6,7-dimethoxyquinolin-4-yl)oxy)phenyl)acetamide (CHMFL-KIT-64) as a Novel Orally Available Potent Inhibitor against Broad-Spectrum Mutants of c-KIT Kinase for Gastrointestinal Stromal Tumors” (J Med Chem, 2019)
